The values below come from publication PMC12346198 (Cancers, 2025).

One data set concerns SNU475. Kind of data set: CCK-8 cytotoxicity assay, SNU475. The class given is cell-based, human. As to conditions: 72 h treatment. As to the method: (§1) The cytotoxicity of compounds was determined by the CCK-8 assay (Cell Counting Kit-8, CK04, Dojindo Molecular Technologies, Kumamoto, Japan). Cell lines were plated at 10,000 cells/well in 96-well plates and incubated overnight to allow for adherence (5% CO2, 37 °C). […] Cells were placed back in the incubator for 72 h treatment. CCK-8 reagent was added, and plates were further incubated 1–4 h as directed by the supplier’s instructions. Optical density was measured using a Biotek Synergy H1 plate reader at 450 nm. Primary hepatocytes were plated at 30,000 cells or 50,000 cells/well and maintained according to the technical information bulletin provided by the supplier. Upon treatment, maintenance media were supplemented with 10% FBS and fresh test compound for all subsequent media changes, as directed.
(Formazan colour is commonly taken as a measure of viable cells.)

The test system of another data set is SNU423. Kind of data set: CCK-8 cytotoxicity assay, SNU423. The class given is cell-based. The note with it: Homo sapiens, SNU-423, 72 h treatment. On the procedure:
as §1

The next data set relates to THLE-2. Kind of data set: CCK-8 cytotoxicity assay, THLE-2. As to conditions: Homo sapiens, 72 h treatment. The class given is cell-based. As to the method:
as §1

The subject of a further data set is HepG2. Kind of data set: CCK-8 cytotoxicity assay, HepG2. The class given is cell-based, human. The note with it: Homo sapiens, HepG2, 72 h, 72 h treatment. On the procedure: as §1
The subject of another data set is Primary Male Hepatocytes. Kind of data set: CCK-8 cytotoxicity assay, primary male hepatocytes. The class given is cell-based. As to conditions: Hepatocyte, 72 h, 72 h treatment. On the procedure: as §1
A short description of data set [1]: Pharmacokinetic modeling of valine pro-drug conversion to parent. The class given is in vivo, mice. As to conditions: for k el: C57BL/6, mouse, plasma, model estimate, read-out: Kel, elimination rate constant of valine conjugate (converted); for Kmet, rate constant of conversion to parent compound: Kmet = Fm × Kel; for Fraction of pro-drug converted to parent (Fm): two-compartment model estimate. The text has this:
A total of 36 mice with available PK data were included for non-linear mixed-effects analysis using NONMEM (version 7.5.0, ICON Development Solutions, Ellicott City, MD, USA), implementing the first-order conditional estimation with interaction (FOCE-I). R (version 4.2.0, R Foundation for Statistical Computing, Vienna, AUT, http://www.r-project.org) was used for visual diagnostics. […] The analyte (valine conjugate and parent compound) plasma concentration–time data were confirmed to have a biphasic distribution and elimination and were therefore fit separately to a linear two-compartment model with a depot for oral administration. Each model was parametrized in terms of clearance (CL), the volume of distribution of the central compartment (V1), intercompartmental clearance (Q), and the volume of the peripheral compartment (V3). Interindividual variability (IIV) for each parameter was assumed to be log-normally distributed, and residual variability (RUV) was described with a proportional error model. The PK parameter estimates from these independent models (parent compound or valine conjugate) were used as initial estimates for a combined model describing the conversion and disposition of the valine conjugate to the parent drug and associated metabolites. The model estimated the fraction of pro-drug converted to parent drug (Fm), which was used to calculate the first-order rate constant of metabolite formation (Kmet) = Fm × Kel. This rate constant was used to calculate the half-life of the conversion process and the amount of metabolite formed at complete conversion. The rate of metabolite formation was then calculated as the ratio of the amount of metabolite formed to the time required for complete conversion (~5 half-lives), as detailed in Figures S8–S11.

Data set [2] can be described thus: Single-dose IV and PO pharmacokinetics in mice. The class given is in vivo, male C57BL/6 mice. As to conditions: for Oral bioavailability compared to parent compound: Figure S5D; for Expected plasma levels for up to 8 h post-dose: linearly scaled from PK data, BID 75 mg/kg niclosamide, 105.7 mg/kg valine–niclosamide, 87.3 mg/kg valine–compound #7, 62.9 mg/kg compound #7; for AUC: analyte = dosed compound; for Cmax: read-out: Cmax, Geo Mean; for Tmax: read-out: Tmax, Geo Mean; for clearance: single IV dose, 2 mg/kg or molar equivalent, read-out: Systemic clearance following an IV dose (converted). On the procedure: The in-life study and quantitative analysis of plasma samples using LC/MS were performed at Charles River Laboratories, Inc. (Wilmington, MA, USA).

The subject of the next data set is SNU475 cells. Kind of data set: Hollow fiber assay (HFA) model of AR-SV HCC. As to conditions: for Cell viability within hollow fibers (MTT assay): nude mice. Type of data set: in vivo. The source says: The hollow fiber procedures were based upon those developed by Hollingshead et al. with technical consultation kindly provided by Drs. Joanna Burdette and Dan Lantvit (University of Illinois Chicago, Chicago, IL, USA). […] In order to utilize a PO dosing approach with the HFA, we extended the traditional HFA timeline to establish angiogenesis, as noted in the literature. […] Hollow fibers (KrosFlo Implant Membranes, M138615, Repligen, Waltham, MA, USA) were filled with 3 × 10^6 SNU475 cells/mL per length and heat-sealed into 2 cm lengths on Day −1. On Day 0, three fibers were implanted into 20-week-old male outbred homozygous athymic nude mice (Foxn1^nu/Foxn1^nu, The Jackson Laboratory, Bar Harbor, ME, USA) subcutaneously parallel to the spine. Following a 14-day waiting period to allow for angiogenesis around the fibers, treatment was initiated. […] On Day 21, mice were euthanized and hollow fibers were explanted. The MTT assay was performed according to the KrosFlo Implant Membrane protocol utilizing Thiazolyl Blue Tetrazolium Bromide (M2128, MilliporeSigma, Burlington, MA, USA).

Data set [3] in a line: Two-week tolerability study. As to conditions: daily PO for 14 days.
Procedure: Mice were group-housed under conditions of a constant photoperiod (12 h light/12 h dark), temperature, and humidity with ad libitum access to water and standard pelleted chow. […] Control mice were treated with the vehicle (DMSO–Cremophor EL–water, 3:15:82 by volume). Treatments were administered PO by gavage once daily for 14 days. Mouse weights were measured every 2 days. At the study endpoint, mice were euthanized approximately 2–4 h after the last dose. Blood was collected by cardiac puncture immediately after CO2 euthanasia. At necropsy, carcasses were examined for grossly visible lesions, and organ weights were measured (liver, kidneys, spleen, urogenital tract, testes, heart, lungs, brain). Whole blood and serum were submitted to the Comparative Pathology and Digital Imaging Shared Resource at the Ohio State Comprehensive Cancer Center (OSUCCC, Columbus, OH, USA) for the determination of complete blood counts and serum chemistry.
For data set [4] the following is noted: cited from earlier work.
Where [5] appears, read: IV, 2 mg/kg (valine conjugates 2 mg/kg EQV).
[6] abbreviates: IV, 2 mg/kg (valine conjugates 2 mg/kg EQV), non-compartmental analysis.
The mark [7] stands for this setting: PO, 40 mg/kg (valine conjugates 40 mg/kg EQV).
[8] abbreviates: male, C57BL/6, mouse, plasma, iv, 2 mg/kg, IV, 2 mg/kg (valine conjugates 2 mg/kg EQV), non-compartmental analysis, read-out: AUCall, Geo Mean.
Setting [9] is: male, C57BL/6, mouse, plasma, iv, 2 mg/kg, IV, 2 mg/kg (valine conjugates 2 mg/kg EQV).
Where [10] appears, read: male, C57BL/6, mouse, plasma, po, 40 mg/kg, PO, 40 mg/kg (valine conjugates 40 mg/kg EQV), non-compartmental analysis, read-out: AUCall, Geo Mean.
[11] abbreviates: male, C57BL/6, mouse, plasma, po, 40 mg/kg, PO, 40 mg/kg (valine conjugates 40 mg/kg EQV).
Where [12] appears, read: male, C57BL/6, mouse, plasma, po, 40 mg/kg, single PO dose, 40 mg/kg or molar equivalent, read-out: AUCall following an oral dose.
Setting [13] is: male, C57BL/6, mouse, plasma, IV, 2 mg/kg (valine conjugates 2 mg/kg EQV).
The mark [14] stands for this setting: male, C57BL/6, mouse, plasma, PO, 40 mg/kg (valine conjugates 40 mg/kg EQV).
Where [15] appears, read: BID PO one week, niclosamide 75, valine–niclosamide 106.1, valine–compound #7 87.3, compound #7 62.9 mg/kg.

Structures can show the parent of a compound that is named as a salt. Where two headings read alike, the source gives them in different places.

As a reminder, the IC50 is the concentration that inhibits the measured activity by half. Consider `CNC(=O)c1cc(Oc2ccc(NC(=O)Nc3ccc(Cl)c(C(F)(F)F)c3)cc2)ccn1` [Sorafenib, sorafenib], for which the IC50 is 4.2 µM in the data set on SNU475; 4 µM in the data set on SNU475 (Homo sapiens, SNU-475, 72 h); 6.1 µM with SNU423; > 30 µM in the data set with THLE-2; 10.8 µM with HepG2; 5.1 µM in the data set on Primary Male Hepatocytes.
For the compound `CNC(=O)c1ccc(N2C(=S)N(c3ccc(C#N)c(C(F)(F)F)c3)C(=O)C2(C)C)cc1F` [Enzalutamide, enzalutamide], the IC50 in the data set with Primary Male Hepatocytes is > 30 µM.
A word on the Cmax: it is the peak of the concentration-time curve. In general, Tmax refers to the time from dosing to the highest level. `CC(C)[C@H](N)C(=O)Oc1ccc(Cl)cc1C(=O)Nc1ccc(C(F)(F)F)cc1Cl` [valine–compound #7]: the k el in data set [1] is 0.00147 s⁻¹. Moreover, the “Kmet, rate constant of conversion to parent compound” value in data set [1] stood at 1.32 h⁻¹. In data set [1], the “Fraction of pro-drug converted to parent (Fm)” value was 25%. For the same compound, the “Oral bioavailability compared to parent compound” value in [2] is given as “this was not observed”. Further, the “HL_Lambda_z, Geo Mean” value in [2] (setting [5]) was 4.20 h; in data set [2] (setting [7]) it was 6.46 h. Also, in data set [2] (setting [6]), the “IV: Clobs, Geo Mean” value was 0.01 L/h. Besides, the “PO: Cl_Fobs, Geo Mean” value in [2] (setting [7]) is 0.05 L/h. Moreover, the “Expected plasma levels for up to 8 h post-dose” value in data set [2] is given as 3.7 µM. Besides, the values for the AUC in data set [2] (setting [8]), in data set [2] (setting [10]) and in [2] (setting [12]) were 13.5 µM·h, 62.1 µM·h and 62.1 µM·h, respectively. Further, the figures for the Cmax in data set [2] (setting [9]) and in [2] (setting [11]) were 10.1 µM and 7.71 µM, respectively. The Tmax worked out at 4.8 min in data set [2] (setting [13]) and 75.6 min in data set [2] (setting [14]). For the same compound, the clearance in data set [2] (male, C57BL/6, mouse, plasma) is 0.167 mL/min. In addition, the “Toxicity in HFA study mice” value with SNU475 cells (87.3 mg/kg BID PO, two mice excluded) is reported as “apparent toxicity”. In addition, the “Cell viability within hollow fibers (MTT assay)” value in the data set with SNU475 cells (setting [15]) is recorded as “no differences in cell viability”.
For `CC(C)[C@H](N)C(=O)Oc1ccc(Cl)cc1C(=O)Nc1ccc([N+](=O)[O-])cc1Cl` [valine–niclosamide], in data set [1], the k el was 0.000789 s⁻¹; the “Kmet, rate constant of conversion to parent compound” value turned out to be 0.64 h⁻¹; the “Fraction of pro-drug converted to parent (Fm)” value was 23%. In addition, in data set [2], the “Oral bioavailability compared to parent compound” value was “significantly higher oral bioavailability” and the “Expected plasma levels for up to 8 h post-dose” value is reported as ~3.5 µM. Further, the “HL_Lambda_z, Geo Mean” value in data set [2] (setting [5]) was determined as 1.54 h. In addition, in [2] (setting [6]), the “IV: Clobs, Geo Mean” value was determined as 0.02 L/h. Also, in data set [2] (PO), the “Fold improvement in Cmax over orally administered niclosamide” value is recorded as 6.8 fold and the “Fold increase in systemic exposure over orally administered niclosamide” value came to 14.9 fold. Also, in data set [2] (setting [7]), the “HL_Lambda_z, Geo Mean” value was found to be 4.11 h and the “PO: Cl_Fobs, Geo Mean” value worked out at 0.05 L/h. In addition, the “Fold increase in plasma levels at 4 h over niclosamide” value in [2] (PO, molar equivalent of 40 mg/kg) was “more than 16 fold”. The AUC in data set [2] (setting [8]) stood at 7.52 µM·h. Moreover, the Cmax in data set [2] (setting [9]) was found to be 11.2 µM. Also, the AUC in [2] (setting [10]) amounted to 48.6 µM·h. Also, in data set [2] (setting [11]), the Cmax amounted to 11.2 µM. Further, the AUC in data set [2] (setting [12]) turned out to be 48.6 µM·h. Further, in data set [2] (male, C57BL/6, mouse, plasma, po, 40 mg/kg, read-out: Plasma level at 4 h after a molar equivalent oral dose), the concentration at 4 h turned out to be 3.59 µM. Also, in [2] (setting [13]), the Tmax was 4.8 min. The Tmax in data set [2] (setting [14]) stood at 40.2 min. Moreover, the clearance in data set [2] (male, C57BL/6, mouse, plasma) was 0.333 mL/min. For the same compound, the “Impact on body weight” value in data set [3] (14.1, 56.4, 141.0 mg/kg) was “no significant impact”. The “Impact on liver enzyme levels” value in data set [3] (ALT, AST, albumin) was “no significant impact”. The “Spleen weights as a percentage of body weight” value in data set [3] (versus vehicle) is given as “increase at the highest dose level”. Besides, the “Cell viability within hollow fibers (MTT assay)” value in the data set with SNU475 cells (setting [15]) was “no differences in cell viability”.
In the case of `CC(=O)O[C@H]1C(=O)[C@@]2(C)[C@H]([C@H](OC(=O)c3ccccc3)[C@]3(O)C[C@H](OC(=O)[C@H](O)[C@@H](NC(=O)c4ccccc4)c4ccccc4)C(C)=C1C3(C)C)[C@]1(OC(C)=O)CO[C@@H]1C[C@@H]2O` [PTX, Paclitaxel, reference compound], in the data set on SNU475 cells (25 mg/kg IP every other day for one week), the “Cell viability within hollow fibers (MTT assay)” value is recorded as “significant decrease in cell viability”.
`CNC(=O)c1cc(Oc2ccc(NC(=O)Nc3ccc(Cl)c(C(F)(F)F)c3)c(F)c2)ccn1` [Regorafenib, regorafenib]: the IC50 was 1.63 µM with SNU475; 1.6 µM with SNU475 (Homo sapiens, SNU-475, 72 h); 5.5 µM in the data set with SNU423; > 30 µM in the data set on THLE-2; 11.9 µM with HepG2; > 30 µM with Primary Male Hepatocytes.
As for `O=C(Nc1ccc([N+](=O)[O-])cc1Cl)c1cc(Cl)ccc1O` [NEN, niclosamide ethanolamine salt], in [4] (40 mg/kg dose PO), the “Plasma niclosamide concentration 4 h after oral administration” value is reported as “roughly 0.72 µM”. For the same compound, in data set [4] (4 h after oral administration), the “Improvement of plasma niclosamide concentration over niclosamide” value is “more than seven-fold”.
As to `COc1cc2nccc(Oc3ccc(NC(=O)NC4CC4)c(Cl)c3)c2cc1C(N)=O` [Lenvatinib, lenvatinib], the IC50 is 13 µM with SNU475 (Homo sapiens, SNU-475, 72 h); > 30 µM in the data set on SNU423; 25.1 µM in the data set on THLE-2; > 30 µM in the data set with HepG2; > 30 µM in the data set on Primary Male Hepatocytes.
